Patent US6380181B1, “Synthetic catechol derivatives, method for production and use thereof” (priority 1996, dated 2002)
Converted amounts (≈) assume the structure as drawn. Like-named read-outs stand apart in the source and are kept apart here.

Experiments:
Format in all cases: cell-based
E. coli mutant KB4 ompF− = system: E. coli mutant KB4 ompF−
Source text: (§1) The efficacy against β-lactamase formers and against multi-resistant germs is therefore due to a new type of mechanism for overcoming the penetration resistance, by means of which the ratio of active ingredient to enzyme in the bacterial cell is influenced so that not all antibiotic molecules are inactivated before they reach their target.

E. coli mutant KB5 ompC− = system: E. coli mutant KB5 ompC−
Source text: as §1

[1] = system: Klebsiella pneumoniae SG 117; assay: Agar diffusion test; details: concentration 100 μg/ml
[2] = system: E. coli mutant PLB3268 ompF++; details: E. coli mutant PLB3268 ompF++ (ompF super-expressed)
Source text: as §1
PLB268: ompF- was super-expressed.

[3] = system: Salmonella gallinarum ATCC 9184; details: concentration 100 μg/ml, Salmonella galinarum ATCC 9184
E. coli DC2 = assay: microbe, parasite or virus in culture
Protocol: (§2) The minimum inhibiting concentrations (MICs) were determined for the following bacterial strains: Pseudomonas aeruginosa NCTC 10701, NCTC 10662, SG 137, ATCC 27853, KW 799 WT and KW 799/61, E. coli DCO, DC2 and ATCC 25922, Serratia marcescens SG 621; Salmonella gallinarum ATCC 9184, Klebsiella pneumoniae ATCC 10031 and SG 117.
(§3) With the test germs KW 799/WT and /61 of Pseudomonas and DCO and DC2 of E. coli, the effect of improved penetration capacity on the efficacy of the substances was investigated.

[4] = system: Pseudomonas aeruginosa NPS1 (plasmid-coded β-lactamase); details: concentration 100 μg/ml; P. aeruginosa NPS 1
[5] = system: Pseudomonas aeruginosa ATCC 27853 (wild type); assay: Agar diffusion test; details: concentration 100 μg/ml; P. aeruginosa ATCC 27853
[6] = system: Salmonella gallinarum ATCC 9184; assay: microbe, parasite or virus in culture; details: Salmonella enterica; Salmonella gallinarum ATCC9184; read-out: MIC values, microdilution test
Protocol: as §2

[7] = system: Pseudomonas aeruginosa Oxa6 (plasmid-coded β-lactamase); details: concentration 100 μg/ml; P. aeruginosa OXA 6
[8] = system: Stenotrophomonas maltophilia IMET 10402; assay: Agar diffusion test; details: concentration 100 μg/ml
E. coli DC0 = assay: Microdilution test (MIC); details: E. coli DC0
Protocol: as §2, §3

[9] = system: Pseudomonas aeruginosa KW 799/61; assay: Microdilution test (MIC)
Protocol: as §2, §3

[10] = system: Pseudomonas aeruginosa KW 799 WT; assay: Microdilution test (MIC); details: P. aeruginosa KW 799/WT
Protocol: as §2, §3

E. coli ATCC 25922 = assay: Microdilution test (MIC)
Protocol: as §2

[11] = system: Pseudomonas aeruginosa NCTC 10662; assay: Microdilution test (MIC); details: P. aeruginosa NCTC 10662
Protocol: as §2

[12] = system: Pseudomonas aeruginosa ATCC 27853; assay: Microdilution test (MIC); details: P. aeruginosa ATCC 27853
Protocol: as §2

[13] = system: Pseudomonas aeruginosa NCTC 10701; assay: Microdilution test (MIC); details: Pseudomonas aeruginosa, NCTC10701; P. aeruginosa NCTC 10701
Protocol: as §2

[14] = system: Serratia marcescens SG 621; assay: Microdilution test (MIC)
Protocol: as §2

[15] = system: Klebsiella pneumoniae ATCC 10031; assay: Microdilution test (MIC)
Protocol: as §2

[16] = system: Pseudomonas aeruginosa SG 137; assay: Microdilution test (MIC); details: P. aeruginosa SG 137
Protocol: as §2

[17] = system: Pseudomonas aeruginosa NCTC 10662; assay: Agar diffusion test; details: concentration 100 μg/ml; P. aeruginosa NCTC 10662
[18] = system: Pseudomonas aeruginosa ATCC 9027 (wild type); assay: Agar diffusion test; details: concentration 100 μg/ml; P. aeruginosa ATCC 9027
[19] = system: Stenotrophomonas maltophilia GN 12873; assay: Agar diffusion test; details: concentration 100 μg/ml
[20] = system: Pseudomonas aeruginosa SG 137 (carbenicillin-resistant); assay: Agar diffusion test; details: concentration 100 μg/ml, P. aeruginosa SG 137
E. coli DC0 (wild type) = assay: Agar diffusion test; details: concentration 100 μg/ml
[21] = system: E. coli DC2 (penetration mutant); details: concentration 100 μg/ml
[22] = system: Stenotrophomonas maltophilia GN 12873; assay: Microdilution test (MIC)
[23] = system: Pseudomonas aeruginosa KW 799 WT (wild type); assay: Agar diffusion test; details: concentration 100 μg/ml, P. aeruginosa KW799/WT
[24] = system: Pseudomonas aeruginosa KW 799/61 (penetration mutant); details: P. aeruginosa KW799/61
[25] = system: Pseudomonas aeruginosa NCTC 10701; assay: Agar diffusion test; details: concentration 100 μg/ml; P. aeruginosa NCTC 10701
[26] = system: Klebsiella pneumoniae ATCC 10031; assay: Agar diffusion test; details: concentration 100 μg/ml
[27] = Escherichia coli, read-out: MIC values, microdilution test

## CC1(C)S[C@@H]2[C@H](NC(=O)[C@H](N)c3ccccc3)C(=O)N2[C@H]1C(=O)O [Ampicillin, reference compound]
E. coli mutant KB4 ompF−
  inhibition spot diameter in agar diffusion test: 10 mm
E. coli mutant KB5 ompC−
  inhibition spot diameter in agar diffusion test: 9.5 mm
[1]
  inhibition spot diameter in the agar diffusion test: 19 mm
[2]
  inhibition spot diameter in agar diffusion test: 17.5 mm
[3]
  inhibition spot diameter in the agar diffusion test: 34 mm
E. coli DC2; [27]
  MIC: 1.56 µg/mL (≈ 4.46 µM)
[4]
  inhibition spot diameter in the agar diffusion test: 0 mm
[5]
  inhibition spot diameter in the agar diffusion test: 0 mm
[6]
  MIC: 0.2 µg/mL (≈ 0.572 µM)
[7]
  inhibition spot diameter in the agar diffusion test: 0 mm
[8]
  inhibition spot diameter in the agar diffusion test: 0 mm
E. coli DC0; [27]
  MIC: 6.25 µg/mL (≈ 17.9 µM)
[9]; Pseudomonas aeruginosa, KW799/61, P. aeruginosa KW 799/61
  MIC: 0.4 µg/mL (≈ 1.14 µM)
[10]; Pseudomonas aeruginosa, KW799WT
  MIC: > 100 µg/mL
E. coli ATCC 25922; Escherichia coli, ATCC25922
  MIC: 6.25 µg/mL (≈ 17.9 µM)
[11]; Pseudomonas aeruginosa, NCTC10662
  MIC: > 100 µg/mL
[12]; Pseudomonas aeruginosa, ATCC27853
  MIC: > 100 µg/mL
[13]
  MIC: > 100 µg/mL
[14]; SG621
  MIC: 25 µg/mL (≈ 71.5 µM)
[15]; ATCC10031
  MIC: 50 µg/mL (≈ 143 µM)
[16]; Pseudomonas aeruginosa, SG137
  MIC: > 100 µg/mL
[17]
  inhibition spot diameter in the agar diffusion test: 0 mm
[18]
  inhibition spot diameter in the agar diffusion test: 0 mm
[19]
  inhibition spot diameter in the agar diffusion test: 0 mm
[20]
  inhibition spot diameter in the agar diffusion test: 0 mm
E. coli DC0 (wild type)
  inhibition spot diameter in the agar diffusion test: 22 mm
[21]
  inhibition spot diameter in the agar diffusion test: 32 mm
[22]; GN12873
  MIC: > 100 µg/mL
[23]
  inhibition spot diameter in the agar diffusion test: 0 mm
[24]; concentration 100 μg/ml
  inhibition spot diameter in the agar diffusion test: 41 mm
[25]
  inhibition spot diameter in the agar diffusion test: 0 mm

## CC(=O)Oc1cccc(C(=O)NCCCC[C@H](NC(=O)c2cccc(OC(C)=O)c2OC(C)=O)C(=O)N[C@@H](C(=O)N[C@@H]2C(=O)N3[C@@H]2SC(C)(C)[C@@H]3C(=O)O)c2ccccc2)c1OC(C)=O [Substance 31, N-[L-2,6-bis-(2,3-diacetoxybenzoylamino)-hexanoyl]-ampicillin]
[3]; listed as 31
  inhibition spot diameter in the agar diffusion test: 29 mm
E. coli DC2
  MIC values, microdilution test: 0.2 µg/mL (≈ 0.218 µM)
E. coli DC0
  MIC values, microdilution test: 12.5 µg/mL (≈ 13.6 µM)
[9]
  MIC values, microdilution test: 0.2 µg/mL (≈ 0.218 µM)
[10]
  MIC values, microdilution test: 0.78 µg/mL (≈ 0.85 µM)
E. coli ATCC 25922; listed as 31
  MIC values, microdilution test: 0.78 µg/mL (≈ 0.85 µM)
[11]; listed as 31
  MIC values, microdilution test: 6.25 µg/mL (≈ 6.81 µM)
[14]
  MIC values, microdilution test: 25 µg/mL (≈ 27.2 µM)
[15]
  MIC values, microdilution test: 0.4 µg/mL (≈ 0.436 µM)
[16]
  MIC values, microdilution test: 0.1 µg/mL (≈ 0.109 µM)
[19]; listed as 31
  inhibition spot diameter in the agar diffusion test: 23 mm
[20]; listed as 31
  inhibition spot diameter in the agar diffusion test: 28 mm
E. coli DC0 (wild type); listed as 31
  inhibition spot diameter in the agar diffusion test: 27 mm
[21]; listed as 31
  inhibition spot diameter in the agar diffusion test: 33 mm
[22]; listed as 31
  MIC values, microdilution test: 0.4 µg/mL (≈ 0.436 µM)
[23]; listed as 31
  inhibition spot diameter in the agar diffusion test: 27 mm
[24]; concentration 100 μg/ml
  inhibition spot diameter in the agar diffusion test: 37 mm

## CC(=O)OC[C@H](NC(=O)c1cccc(OC(C)=O)c1OC(C)=O)C(=O)N[C@@H](C(=O)N[C@@H]1C(=O)N2[C@@H]1SC(C)(C)[C@@H]2C(=O)O)c1ccccc1 [Substance 32, N-[L-3-Acetoxy-2-(2,3-diacetoxybenzoylamino)-propionyl]-ampicillin]
[3]
  inhibition spot diameter in the agar diffusion test: 28 mm
E. coli DC0
  MIC values, microdilution test: 12.5 µg/mL (≈ 17.9 µM)
[9]
  MIC values, microdilution test: 0.4 µg/mL (≈ 0.572 µM)
[10]
  MIC values, microdilution test: 1.56 µg/mL (≈ 2.23 µM)
[14]
  MIC values, microdilution test: 25 µg/mL (≈ 35.8 µM)
[16]
  MIC values, microdilution test: 1.56 µg/mL (≈ 2.23 µM)
[19]
  inhibition spot diameter in the agar diffusion test: 19 mm
[20]
  inhibition spot diameter in the agar diffusion test: 16 mm
E. coli DC0 (wild type)
  inhibition spot diameter in the agar diffusion test: 22 mm
[21]
  inhibition spot diameter in the agar diffusion test: 28 mm
[23]
  inhibition spot diameter in the agar diffusion test: 25 mm
[24]; concentration 100 μg/ml
  inhibition spot diameter in the agar diffusion test: 32 mm

## CC(=O)Oc1cccc(C(=O)NCCCC[C@H](NC(=O)c2cccc(OC(C)=O)c2OC(C)=O)C(=O)N[C@@H](C(=O)N[C@@H]2C(=O)N3[C@@H]2SC(C)(C)[C@@H]3C(=O)O)c2ccc(O)cc2)c1OC(C)=O [Substance Na-35, N-[L-2,6-bis-(2,3-diacetoxy-benzoylamino)-hexanoyl)-amoxicillin]
[1]
  inhibition spot diameter in the agar diffusion test: 23 mm
[26]
  inhibition spot diameter in the agar diffusion test: 20 mm
[3]
  inhibition spot diameter in the agar diffusion test: 33 mm
[5]
  inhibition spot diameter in the agar diffusion test: 22 mm
E. coli ATCC 25922
  MIC values, microdilution test: 0.2 µg/mL (≈ 0.214 µM)
[11]
  MIC values, microdilution test: 1.58 µg/mL (≈ 1.69 µM)
[12]
  MIC values, microdilution test: 1.56 µg/mL (≈ 1.67 µM)
[16]
  MIC values, microdilution test: 0.1 µg/mL (≈ 0.107 µM)
[19]
  inhibition spot diameter in the agar diffusion test: 28 mm
[20]
  inhibition spot diameter in the agar diffusion test: 31 mm
E. coli DC0 (wild type)
  inhibition spot diameter in the agar diffusion test: 24 mm
[21]
  inhibition spot diameter in the agar diffusion test: 38 mm
[22]
  MIC values, microdilution test: 6.25 µg/mL (≈ 6.69 µM)
[23]
  inhibition spot diameter in the agar diffusion test: 30 mm
[24]; [ ] at 50 μg/ml
  inhibition spot diameter in the agar diffusion test: [38] mm

## COC(=O)Oc1cccc(C(=O)N(C)c2ccc(C(=O)N[C@@H](C(=O)N[C@@H]3C(=O)N4[C@@H]3SC(C)(C)[C@@H]4C(=O)O)c3ccccc3)cc2)c1OC(=O)OC [Substance Na-37, N-{4-[(2,3-di-methoxycarbonyloxy-benzoyl)-methyl-amino]-benzoyl}-ampicillin]
[1]
  inhibition spot diameter in the agar diffusion test: 19 mm
[26]
  inhibition spot diameter in the agar diffusion test: 22 mm
[3]
  inhibition spot diameter in the agar diffusion test: 29 mm
[5]
  inhibition spot diameter in the agar diffusion test: 21 mm
E. coli ATCC 25922
  MIC values, microdilution test: 3.12 µg/mL (≈ 4.25 µM)
[11]
  MIC values, microdilution test: 12.5 µg/mL (≈ 17 µM)
[12]
  MIC values, microdilution test: 3.12 µg/mL (≈ 4.25 µM)
[15]
  MIC values, microdilution test: 3.12 µg/mL (≈ 4.25 µM)
[16]
  MIC values, microdilution test: 0.4 µg/mL (≈ 0.544 µM)
[19]
  inhibition spot diameter in the agar diffusion test: 16 mm
[20]
  inhibition spot diameter in the agar diffusion test: 22 mm
E. coli DC0 (wild type)
  inhibition spot diameter in the agar diffusion test: 27 mm
[21]
  inhibition spot diameter in the agar diffusion test: 33 mm
[22]
  MIC values, microdilution test: 6.25 µg/mL (≈ 8.51 µM)
[23]
  inhibition spot diameter in the agar diffusion test: 28 mm
[24]; concentration 100 μg/ml
  inhibition spot diameter in the agar diffusion test: 35 mm
